According to patent US11147781B2, “Methods for alleviating statin myopathy” (priority 2014, dated 2021):
Read-outs that look alike come from different tables or passages of the source. Blank lines part the entries; values can stand above or below the molecule they belong to.

Experiments:
[1] = system: patients with statin-induced myopathy (SIM); type: in vivo, human; set-up: triglycerides: unit not given here
Method: A clinical study was conducted to evaluate the effects of HMB on patients with statin-induced myopathy (SIM). A total of eighteen patients were evaluated for the study with informed written consent obtained. Of the eighteen patients, fourteen (14) ultimately qualified as having true statin myalgia and were enrolled in the study. All patients enrolled were under the care of a board certified cardiologist.
A summary of the enrolled patients and their outcomes is as follows: • 1. All 14 had type 2a or mixed hyperlipidemia. • 2. All 14 had been treated with multiple statin agents, in each case withdrawing from the statin agent due to myalgia/myopathy. • 3. Of the 14 patients enrolled, 4 had elevated CPKs (creatine phosphokinase, a biomarker for myositis/rhabdomyolysis) secondary to SIM. • 4. Five of the 14 patients had undergone prior percutaneous coronary intervention with stents. • 5. One of the 14 patients had undergone prior coronary bypass surgery. • 6. Four of the 14 patients had angiographically documented moderate coronary artery disease not requiring percutaneous coronary intervention (PCI)/coronary bypass. • 7. Four of the 18 patients were disqualified due to the following: • Patient's leg myalgia was secondary to angiographically proven peripheral vascular disease, not SIM and symptoms were consistent with this diagnosis. • Patient's unilateral leg pain was secondary to neuropathy, not SIM. • Patient complained of GI upset on combined statin+3-hydroxy 3-methybutyrate and medication was discontinued. […] All 14 qualified patients remained on combination statin (in some cases with Zetia to achieve target) plus HMB therapy after the initial duration of the study. As noted, of those who had previously discontinued statin therapy, all had been tried on multiple statin agents without success. • 9. Follow up was conducted with all patients including out-patient visits and phone conversation. • 10.
The free acid form was used in one patient who experienced major CPK elevations (900-1000 IU/L range) and disabling myalgia on statins.
For this study, patients were evaluated using multiple laboratories with variable lab normal ranges, which are included. In the patient population as a whole, the full spectrum of SIM is presented, including statin myalgia […] CPK elevation (myositis or rhabdomyolysis depending on severity), elevation of CPK without myalgia, post-statin elevation of CPK with and without pain, post-statin myalgia without CPK elevation, and, finally, statin-induced muscle weakness without myalgia. Also represented were other statin-induced side effects such as short-term memory loss and glucose intolerance.

acute rhabdomyolysis = test: In-patient treatment of acute rhabdomyolysis with HMB; type: in vivo, human; details: HMB free acid (gel form) 6 g twice daily for 3 days, within 3 days
Description: HMB administration is used to treat acute rhabdomyolysis in an in-patient setting.
Acute rhabdomyolysis is a rare but extreme and potentially life-threatening disorder that can occur in all groups in a setting of dehydration, trauma, and in younger age groups, intense exercise. […] At this time there is no known method of reversing rhabomyolysis apart from bed rest and hydration.
Protocol: measure patient's CPK; if value exceeds 10 times the upper limit of normal (200 IU/L, depending on laboratory-specific established normal range), initiate the following: • 1. Admit to ICU; • 2. Initiate IV 0.9% saline at 165 ml/hour; • 3. Initiate HMB free acid (gel form), dose 6 g twice daily for 3 days; • 4. Lab: CPK, BUN, creatinine, glucose and electrolytes every 12 hours for 3 days.

[2] = free acid form versus calcium monohydrate form; cited from earlier work
[3] = Patient A-1, 3 months, Crestor 10 mg daily + 2 g BID
[4] = Patient F-6, atorvastatin 40 mg + Zetia 10 mg + 2 g BID, 2-month follow-up

CPK under statin ([1]; human, in vivo): 320 IU/L
Structure (SMILES): CC(C)c1nc(N(C)S(C)(=O)=O)nc(-c2ccc(F)cc2)c1/C=C/[C@@H](O)C[C@@H](O)CC(=O)O [Crestor®, rosuvastatin, reference compound]

Structure (SMILES): CC(C)(O)CC(=O)O [HMB free acid]
CPK ([1]; Patient D-4, free acid 2 gelcaps TID (3 g daily), after ten days, before 378): 257 IU/L
patient-reported state ([1]; Patient D-4, free acid 3 g daily, ten days): felt better
fasting blood glucose ([1]; Patient D-4, free acid 3 g daily, ten days, before >200): 100 mg %
symptoms ([1]; Patient O-15, converted to free acid 1 g TID, three months post-enrollment): completely symptom-free
change in CPK ([1]; free acid gel cap, one patient (D-4) with major CPK elevations on statins): significant decrease
symptoms ([1]; free acid gel cap, one patient (D-4), improvement over calcium monohydrate form): resolution in symptoms
CPK (acute rhabdomyolysis): below 200 IU/L
bioavailability [2]: more bioavailable

Structure (SMILES): CC(C)(O)CC(=O)[O-].CC(C)(O)CC(=O)[O-].[Ca+2] [calcium HMB monohydrate]
CPK ([1]; Patient A-1, 2 g BID, 9 days later, before HMB 242, range 26-192): 87 IU/L
time to complete resolution of all pain ([1]; Patient A-1, 2 g BID, post-statin myositis, before re-introducing statin): 3 days
CPK [1, 3]: 110 IU/L
LDL [1, 3]: 72 mg/dL
symptoms [1, 3]: asymptomatic
LDL ([1]; Patient B-2, Vytorin 10/40 + 2 g BID, 50 days, before 168): 110 mg %
CPK ([1]; Patient B-2, Vytorin 10/40 + 2 g BID, 50 days, lab normal range 44-196): 173 IU/L
symptoms ([1]; Patient B-2, six months later, on Vytorin): completely asymptomatic
symptoms ([1]; Patient C-3, Crestor 10 mg daily + 2 g BID, three months): completely symptom free
myalgia ([1]; Patient D-4, Crestor 20 mg + Zetia 10 mg + 2 g BID, 37 days): resolved except for very mild discomfort climbing stairs
CPK ([1]; Patient D-4, Crestor 20 mg + Zetia 10 mg + 2 g BID, 37 days, before 705, range 26-192): 277 IU/L
LDL ([1]; Patient D-4, Crestor 20 mg + Zetia 10 mg + 2 g BID, 37 days, before >200 mg %): 49
CPK ([1]; Patient D-4, five months later, diabetes uncontrolled): 378 IU/L
bilateral calf myalgia ([1]; Patient E-5, 2 g BID, post-statin myalgia): resolved rapidly and completely
CPK ([1]; Patient E-5, after HMB treatment 2 g BID, range 39-308): 110 IU/L
myalgia [1, 4]: completely resolved
short term memory loss [1, 4]: improved
LDL ([1]; Patient F-6, atorvastatin 40 mg + Zetia 10 mg + 2 g BID, repeat): 43
CPK ([1]; Patient G-7, statin + 2 g BID, four weeks, range 29-168): 39 IU/L
LDL ([1]; Patient G-7, statin + 2 g BID, four weeks, reduced from 169): 108
symptoms ([1]; Patient G-7, statin resumed + 2 g BID, approximately four weeks): free of all symptoms of myalgia and muscle weakness
symptoms ([1]; Patient H-8, 2 g BID combination, one month): completely asymptomatic
bilateral thigh pain ([1]; Patient J-10, Lipitor 10 mg daily + 2 g BID, one month): complete resolution of bilateral thigh pain
CPK reduction ([1]; Patient K-11, 47 days): 32%
LDL reduction ([1]; Patient K-11, 47 days): 50%
LDL ([1]; Patient K-11, Crestor 20 mg daily + 2 g BID, 47 days, before 282): 139
CPK ([1]; Patient K-11, Crestor 20 mg daily + 2 g BID, 47 days, before 282 (29-168)): 191 IU/L
symptoms ([1]; Patient K-11, exercises near-daily): pain-free
LDL ([1]; Patient L-12, Crestor 5 mg daily + 2 g BID, two months, before 122): 100
triglycerides ([1]; Patient L-12, Crestor 5 mg daily + 2 g BID, two months, before 261): 193
symptoms ([1]; Patient L-12, two months): pain-free
CPK ([1]; Patient L-12, two months, range 29-168): 87 IU/L
LDL ([1]; Patient M-13, Crestor + 2 g BID, four months, before 244): 114
CPK ([1]; Patient M-13, Crestor + 2 g BID, four months, before 320, range 39-308): 210 IU/L
myalgia ([1]; Patient M-13, follow-up five months after enrollment): All myalgia had resolved
CPK reduction ([1]; Patient M-13, four months): 34%
LDL reduction ([1]; Patient M-13, four months): 53%
muscle weakness ([1]; Patient N-14, statin continued + 2 g BID, 13 days): symptoms of muscle weakness had resolved
CPK ([1]; Patient O-15, 2 months post-enrollment, 5 days/week weight program, before 274 (30-200)): 310 IU/L
LDL ([1]; Patient O-15, 2 months post-enrollment, before 30): 53
quadriceps/thigh pain ([1]; Patient O-15, combined statin therapy + 2 g BID, four weeks): complete resolution of all quadriceps/thigh pain
thigh pain ([1]; Patient P-16, simvastatin + 2 g BID, sixteen days, persistent groin stiffness): no longer had any thigh pain

CPK under statin (severe rhabdomyolysis) ([1]; human, in vivo): 900-1000 IU/L
Structure (SMILES): CCC(C)(C)C(=O)O[C@H]1C[C@@H](C)C=C2C=C[C@H](C)[C@H](CC[C@@H]3C[C@@H](O)CC(=O)O3)[C@H]21 [simvastatin, reference compound]
